US20080045529A1, “Use Of Thienopyrimidines” (MERCK PATENT GMBH, priority 2003, published 2008)

Assays:
RAF = test: Inhibition of RAF; type: biochemical
TIE-2 = TIE-2 (Homo sapiens, UniProt Q02763); test: Tie-2 kinase flashplate assay (phosphorylation of poly(Glu, Tyr) with 33P-ATP); type: biochemical; conditions: read-out: Inhibition of TIE-2 IC50
Description: The TIE-2 tests can be carried out, for example, analogously to the methods indicated in WO 02/44156.
The assay determines the inhibiting activity of the substances to be tested in the phosphorylation of the substrate poly(Glu, Tyr) by Tie-2 kinase in the presence of radioactive ^33P-ATP. The phosphorylated substrate binds to the surface of a “flashplate” microtitre plate during the incubation time. After removal of the reaction mixture, the microtitre plate is washed a number of times and the radioactivity on its surface is subsequently measured. An inhibiting effect of the substances to be measured results in lower radioactivity compared with an undisturbed enzymatic reaction.

TIE-2, sequence (Q02763 23-1124, species assumed): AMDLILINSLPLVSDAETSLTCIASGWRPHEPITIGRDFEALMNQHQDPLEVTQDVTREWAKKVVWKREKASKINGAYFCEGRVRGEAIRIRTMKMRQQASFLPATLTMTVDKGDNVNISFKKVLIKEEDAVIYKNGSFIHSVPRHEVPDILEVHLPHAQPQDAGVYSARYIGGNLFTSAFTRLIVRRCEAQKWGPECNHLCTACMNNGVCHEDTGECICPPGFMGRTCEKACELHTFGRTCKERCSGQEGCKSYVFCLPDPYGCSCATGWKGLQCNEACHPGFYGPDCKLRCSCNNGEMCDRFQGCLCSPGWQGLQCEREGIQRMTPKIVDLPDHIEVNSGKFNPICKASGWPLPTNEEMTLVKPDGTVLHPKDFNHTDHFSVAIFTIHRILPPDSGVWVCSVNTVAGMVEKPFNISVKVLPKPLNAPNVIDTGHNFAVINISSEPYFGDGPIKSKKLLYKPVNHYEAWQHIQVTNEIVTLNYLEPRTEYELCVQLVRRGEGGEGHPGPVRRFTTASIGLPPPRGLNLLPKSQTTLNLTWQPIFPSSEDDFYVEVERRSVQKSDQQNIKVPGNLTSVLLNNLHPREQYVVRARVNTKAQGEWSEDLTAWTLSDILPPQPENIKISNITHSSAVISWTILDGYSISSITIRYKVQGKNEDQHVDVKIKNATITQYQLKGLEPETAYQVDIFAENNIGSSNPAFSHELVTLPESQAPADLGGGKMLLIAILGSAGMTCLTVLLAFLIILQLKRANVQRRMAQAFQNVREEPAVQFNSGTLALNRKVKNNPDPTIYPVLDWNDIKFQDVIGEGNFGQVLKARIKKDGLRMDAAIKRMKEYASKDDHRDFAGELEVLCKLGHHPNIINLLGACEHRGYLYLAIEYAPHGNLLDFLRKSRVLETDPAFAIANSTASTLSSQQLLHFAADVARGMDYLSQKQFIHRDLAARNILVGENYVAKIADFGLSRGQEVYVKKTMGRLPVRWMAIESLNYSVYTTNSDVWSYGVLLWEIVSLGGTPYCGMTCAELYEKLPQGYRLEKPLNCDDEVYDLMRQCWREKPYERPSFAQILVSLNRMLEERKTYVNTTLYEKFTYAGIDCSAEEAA

Cc1cc2c(NCc3ccc4c(c3)OCO4)nc(-n3ccnc3)nc2s1 [Example 2, 2-(imidazol-1-yl)-6-methyl-4-(3,4-methylenedioxybenzylamino)thieno[2,3-d]pyrimidine]
melting point: 248 to 250 °C

Cc1sc2nc(N3CCOCC3)nc(NCc3ccc4c(c3)OCO4)c2c1C
IC50 (RAF): 5.3 µM

c1cc2c(cc1CNc1nc(N3CCOCC3)nc3sc4c(c13)CCCC4)OCO2
IC50 (RAF): 4.3 µM

c1cnn(-c2nc(NCc3ccc4c(c3)OCO4)c3c4c(sc3n2)CCCC4)c1
IC50 (TIE-2): 0.15 µM
